Assay results from US9452154B2, “Methods for treating HCV” (Gilead Sciences, Inc., priority 2010, dated 2016).
Read-outs that look alike come from different tables or passages of the source.

Assays:
Huh-luc replicon cells = assay: Biological Example 5: cellular cytotoxicity (CellTiter-Glo); settings: highest concentrations tested (column Concentration(s)); relative to untreated controls
Experimental: Replicon cells were seeded and treated with drugs as described for the antiviral combination studies above. After three day incubation at 37° C., the culture media was removed and cells were lysed and assayed for cytotoxicity using a CellTiter-Glo Luminescent Cell Viability Assay (Promega) according to the manufacturer's instructions. Relative Light Units were converted into percentages relative to the untreated controls (defined as 100%).

[1] = Biological Example 3: cytotoxicity (calcein AM), CC50; type: cell-based; settings: human, Huh-7 cells carrying a HCV genotype 1a replicon; HCV genotype 1a replicon cells; calcein AM
[2] = system: Genotype 1b replicon cells; assay: Biological Example 6: compound concentration required to suppress replicon RNA by 1-1.5 log over 6 days (QRT-PCR); type: cell-based, HCV; settings: 6 day assay
Experimental: Flasks were incubated at 37° C., media and compounds were refreshed every two days. After 6 days of incubation the replicon cells were collected for RNA extraction and replicon RNA QRT-PCR analysis.

GT-1b Huh-lunet cells = assay: Biological Example 4: antiviral combination studies with Compound 5 (MacSynergy II); type: cell-based, HCV; settings: in combination with Compound 5, 1b replicon cells
[3] = Drug-drug interaction: exposure on co-administration with Compound 2
[4] = system: NS3 GT1a mutant replicons; type: cell-based, HCV
[5] = system: NS3 GT1b mutant replicons; type: cell-based, HCV
[6] = system: Huh-7 cells carrying a HCV genotype 1a replicon; assay: Biological Example 3: cytotoxicity in combination studies (MacSynergy II); settings: in combination with Compound 4
[7] = system: GT1b and GT1a mutant replicons; assay: Biological Example 8: summary of cross resistance of mutant replicons; type: cell-based, HCV; settings: all single NS3 PI-resistant mutants
HCV 1b RLuc = assay: microbe, parasite or virus in culture; type: cell-based; settings: Hepatitis C virus, read-out: antiviral potency [EC50]
HCV genotype 1a replicon [8] = assay: Biological Example 3: HCV genotype 1a replicon assay, EC50; type: cell-based; settings: Hepatitis C virus, 72 h, 3 days, read-out: EC50
Experimental: The HCV genotype 1a replicon cell line used in this study was described previously. The cells were grown in cell culture medium containing Dulbecco's Modified Eagle Medium (DMEM) with GlutaMAX (Gibco, Carlsbad, Calif., Cat#10569-044), supplemented with 10% FBS (HyClone, Logan, Utah, Cat#SH30071.03), 100 Units/mL Penicillin, 100 μg/mL Streptomycin (Gibco, Carlsbad, Calif., Cat#15140-122), and 0.1 mM non-essential amino acids (Gibco, Carlsbad, Calif., Cat#11140-050). Replicon cells were maintained in 0.5 mg/mL Geneticin (Invitrogen, Carlsbad, Calif., Cat#10131-035) to prevent the loss of HCV replicon. The cells were passaged every 3-4 days before reaching confluency.
[formula] where XC is the fluorescence signal from the compound-treated well; MB is the average fluorescence signal from puromycin-treated wells; MD is the average fluorescence signal from DMSO-treated wells. The anti-HCV replication activity was determined by the luminescence signal generated from the reporter renilla luciferase of the HCV replicon. The percent inhibition on HCV replicon was calculated using equation 1, where XC is the luminescence signal from compound-treated well; MB is average luminescence signal from the ITMN-191-treated wells; MD is the average luminescence signal from DMSO-treated wells.
Both CC50 and EC50 values were obtained using Pipeline Pilot 5.0 software package (Accelrys, San Diego, Calif.) by nonlinear regression fitting of experimental data to equation 2: […]

HCV genotype 1a replicon [9] = assay: Biological Example 3: antiviral combination studies with Compound 4 (MacSynergy II); settings: in combination with Compound 4

SMILES: COC(=O)N[C@H](C(=O)N1CC2(CC2)C[C@H]1c1ncc(-c2ccc3c(c2)C(F)(F)c2cc(-c4ccc5nc([C@@H]6[C@H]7CC[C@H](C7)N6C(=O)[C@@H](NC(=O)OC)C(C)C)[nH]c5c4)ccc2-3)[nH]1)C(C)C [Compound 6, (1-{3-[6-(9,9-Difluoro-7-{2-[5-(2-methoxycarbonylamino-3-methyl-butyryl)-5-aza-spiro[2.4]hept-6-yl]-3H-imidazol-4-yl}-9H-fluoren-2-yl)-1H-benzoimidazol-2-yl]-2-aza-bicyclo[2.2.1]heptane-2-carbonyl}-2-methyl-propyl)-carbamic acid methyl ester]
- Cell Viability % (Huh-luc replicon cells): 99 ± 1%
- CC50 at 3 days [1]: > 44400 nM
- Compound concentration able to induce replicon RNA 1-1.5 log drop [2]: 0.004 nM
- Antagonism Volume (GT-1b Huh-lunet cells): 0 ± 0 nM^2
- Synergy Volume (GT-1b Huh-lunet cells): 34 ± 19 nM^2
- increase of exposure when combined with Compound 2 [3]: approximately 5 ×
- fold change in EC50 vs wild-type GT1a ([4]; mutant A156T): 0.2 fold
- fold change in EC50 vs wild-type GT1a ([4]; mutant D168A): 1.1 fold
- fold change in EC50 vs wild-type GT1a ([4]; mutant D168E): 1.3 fold
- fold change in EC50 vs wild-type GT1a ([4]; mutant D168G): 0.8 fold
- fold change in EC50 vs wild-type GT1a ([4]; mutant D168H): 1.1 fold
- fold change in EC50 vs wild-type GT1a ([4]; mutant D168N): 1.2 fold
- fold change in EC50 vs wild-type GT1a ([4]; mutant D168V): 1.2 fold
- fold change in EC50 vs wild-type GT1a ([4]; mutant D168Y): 0.8 fold
- fold change in EC50 vs wild-type GT1a ([4]; mutant R155I): 0.5 fold
- fold change in EC50 vs wild-type GT1a ([4]; mutant R155K): 0.6 fold
- fold change in EC50 vs wild-type GT1a ([4]; mutant R155K + L31M): 96.9 fold
- fold change in EC50 vs wild-type GT1a ([4]; mutant R155K + L31M + Y448H): >330 fold
- fold change in EC50 vs wild-type GT1a ([4]; mutant R155K + M28T): 12.3 fold
- fold change in EC50 vs wild-type GT1a ([4]; mutant R155K + M28T + Y448H): 53.0 fold
- fold change in EC50 vs wild-type GT1a ([4]; mutant R155K + Q30H + Y448H): 55.0 fold
- fold change in EC50 vs wild-type GT1a ([4]; mutant R155K + Q30R): 85.3 fold
- fold change in EC50 vs wild-type GT1a ([4]; mutant R155K + Y93H): >3000 fold
- fold change in EC50 vs wild-type GT1a ([4]; mutant R155K + Y488H (first line, r20)): 1.1 fold
- fold change in EC50 vs wild-type GT1a ([4]; mutant R155K + Y488H (second line, r26)): 0.5 fold
- fold change in EC50 vs wild-type GT1a ([4]; mutant R155M): 0.3 fold
- fold change in EC50 vs wild-type GT1a ([4]; mutant R155S): 0.3 fold
- fold change in EC50 vs wild-type GT1a ([4]; mutant R155T): 0.3 fold
- fold change in EC50 vs wild-type GT1a ([4]; mutant R155W): 0.7 fold
- fold change in EC50 vs wild-type GT1a ([4]; mutant R155k + Q30H): 49.4 fold
- fold change in EC50 vs wild-type GT1b ([5]; mutant A156D): 0.4 fold
- fold change in EC50 vs wild-type GT1b ([5]; mutant A156G): 0.9 fold
- fold change in EC50 vs wild-type GT1b ([5]; mutant A156T): 0.4 fold
- fold change in EC50 vs wild-type GT1b ([5]; mutant A156V): 0.4 fold
- fold change in EC50 vs wild-type GT1b ([5]; mutant D168A): 0.8 fold
- fold change in EC50 vs wild-type GT1b ([5]; mutant D168E): 1.0 fold
- fold change in EC50 vs wild-type GT1b ([5]; mutant D168E + L31V + Y448H): >210 fold
- fold change in EC50 vs wild-type GT1b ([5]; mutant D168E + Y93H + Y448H): >613 fold
- fold change in EC50 vs wild-type GT1b ([5]; mutant D168E + Y448H): 0.7 fold
- fold change in EC50 vs wild-type GT1b ([5]; mutant D168G): 0.6 fold
- fold change in EC50 vs wild-type GT1b ([5]; mutant D168H): 1.2 fold
- fold change in EC50 vs wild-type GT1b ([5]; mutant D168H + C445F): 0.3 fold
- fold change in EC50 vs wild-type GT1b ([5]; mutant D168L + C445F): 0.4 fold
- fold change in EC50 vs wild-type GT1b ([5]; mutant D168N): 0.9 fold
- fold change in EC50 vs wild-type GT1b ([5]; mutant D168T): 0.8 fold
- fold change in EC50 vs wild-type GT1b ([5]; mutant D168V): 0.9 fold
- fold change in EC50 vs wild-type GT1b ([5]; mutant D168V + C445F): 0.4 fold
- fold change in EC50 vs wild-type GT1b ([5]; mutant D168V + L31V + Y448H): >126 fold
- fold change in EC50 vs wild-type GT1b ([5]; mutant D168V + Y93H + Y448H): >664 fold
- fold change in EC50 vs wild-type GT1b ([5]; mutant D168V + Y448H): 0.5 fold
- fold change in EC50 vs wild-type GT1b ([5]; mutant D168Y): 0.7 fold
- fold change in EC50 vs wild-type GT1b ([5]; mutant L31V + D168E): 228.7 fold
- fold change in EC50 vs wild-type GT1b ([5]; mutant L31V + D168V): 117.5 fold
- fold change in EC50 vs wild-type GT1b ([5]; mutant R155C): 0.9 fold
- fold change in EC50 vs wild-type GT1b ([5]; mutant R155G): 0.7 fold
- fold change in EC50 vs wild-type GT1b ([5]; mutant R155K): 2.3 fold
- fold change in EC50 vs wild-type GT1b ([5]; mutant R155L): 0.7 fold
- fold change in EC50 vs wild-type GT1b ([5]; mutant R155Q): 0.7 fold
- fold change in EC50 vs wild-type GT1b ([5]; mutant R155W): 0.4 fold
- fold change in EC50 vs wild-type GT1b ([5]; mutant Y93H + D168E): >570 fold
- fold change in EC50 vs wild-type GT1b ([5]; mutant Y93H + D168V): >1140 fold
- Antagonism Volume (cytotoxicity) [6]: 0 ± 0 nM^2%
- Interaction (cytotoxicity) [6]: Additivity (Additivity: ≦25 and >−25 nM^2%)
- Synergy Volume (cytotoxicity) [6]: 8 ± 4 nM^2%
- susceptibility of mutants [7]: full susceptibility
- EC50 (HCV 1b RLuc): 0.0045 nM
- EC50 (HCV genotype 1a replicon [8]): 0.033 ± 0.011 nM
- Antagonism Volume (HCV genotype 1a replicon [9]): −7 ± 7 nM^2%
- Interaction (HCV genotype 1a replicon [9]): Additivity (Additivity: ≦25 and >−25 nM^2%)
- Synergy Volume (HCV genotype 1a replicon [9]): 19 ± 17 nM^2%
